According to PubChem BioAssay AID1996:
≈ marks a conversion by molar mass, not a printed value.

details: buffer; pH 7.4; 200.0 µM

Structure (SMILES) | solubility kinetic [µg/mL]
Cc1ccc(S(=O)(=O)NC2CC2)s1 | > 32.6
CCOc1ccc(C2(C)CC(=O)N(C)C2=O)cc1 (stereo unspecified) | 11.4 (≈ 46.1 µM)
CCN(CC)CCN=Cc1c(O)n(Cc2ccccc2)c(=O)[nH]c1=O | > 51.7
O=C(Nc1ccc(Nc2ccccc2)cc1)c1cccc(F)c1 | 0.8 (≈ 2.61 µM)
CC(NC(=O)c1cc(=O)[nH]c2ccccc12)c1ccc(F)cc1F (stereo unspecified) | 2.8 (≈ 8.53 µM)
O=C(c1ccc2ccccc2c1)N1CCN(Cc2ccccc2)CC1 | > 49.6
CC1CCCN(C(=O)COc2ccc(Nc3ccccc3)cc2)C1 (stereo unspecified) | 6.2 (≈ 19.1 µM)
COc1ccccc1C(=O)NCCCNC(=O)c1ccccn1 | > 47
Cc1noc2ncnc(Oc3ccccc3Cl)c12 | 28 (≈ 107 µM)
CCCN1CNc2c(c(=O)[nH]c(=S)n2-c2ccccc2Cl)C1 | > 50.5
O=C(CN1C(=O)c2ccccc2C1=O)NC1CCC(O)CC1 (stereo unspecified) | > 45.3
Cc1ccc(CN(Cc2ccccc2)C(=S)Nc2ccccc2C)o1 | 1.5 (≈ 4.28 µM)
CCN(c1ccccc1)S(=O)(=O)c1ccc(C(=O)Nc2ccccc2OC)cc1 | 3.7 (≈ 9.01 µM)
Cc1ccc(C(=O)N/C(=C\c2ccc(C)o2)C(=O)O)cc1 | > 42.8
Cl.NC(N)=NC(N)=Nc1cccc(Cl)c1 | > 37.2
CC1COc2ccccc2N1C(=O)c1ccccc1Cl (stereo unspecified) | > 43.2
COc1ccc(OCC(=O)NCc2ccc(Cl)cc2)cc1 | 3.3 (≈ 10.8 µM)
ON=C1c2ccccc2-c2ccccc21 | 1.3 (≈ 6.66 µM)
CCOC(=O)c1c(N)sc(N)c1C(=O)OCC | 29.9 (≈ 116 µM)
CCC(C(=O)N1CCN(c2ncccn2)CC1)c1ccccc1 (stereo unspecified) | 41.7 (≈ 134 µM)
O=C1c2cccc3cccc(c23)C(=O)N1c1ccccn1 | 40.4 (≈ 147 µM)

Structure (SMILES) | solubility kinetic [µg/mL]
COc1ccccc1Nc1nc(NCCCN(C)C)nc(N)c1[N+](=O)[O-] | > 54.2
O=C(O)CC(NC(=O)CCc1ccccc1)c1ccc(Cl)cc1 (stereo unspecified) | 44.5 (≈ 134 µM)
Cn1cccc1C(=O)OCc1ccc(C(C)(C)C)cc1 | 0.7 (≈ 2.58 µM)
O=S(=O)(c1ccc(Br)cc1Cl)N1CCCN(c2ccc(C(F)(F)F)cn2)CC1 | 3 (≈ 6.02 µM)
Cc1csc(SC(C)C(=O)Nc2ccc3c(c2)OCCO3)n1 (stereo unspecified) | > 50.5
Cc1csc(NC(=O)c2ccc3nc[nH]c3c2)n1 | > 38.7
O=C(NCC1CCCO1)c1c(O)nc2sccn2c1=O (stereo unspecified) | > 44.3
O=C(COC(=O)Cc1c(Cl)cccc1Cl)NC1CCCC1 | > 49.5
OCCCNc1c2ccccc2nc2ccccc12 | > 37.8
CC(=O)c1cccc(NC(=O)COC(=O)Cn2cnc3ccccc32)c1 | > 52.7
CN(C)C(=O)CN1C(=O)NC2(CCCc3ccccc32)C1=O (stereo unspecified) | > 45.2
CC1(C)C2CCC1(CS(=O)(=O)NC1CCCC1)C(=O)C2 (stereo unspecified) | > 44.9
COc1ccc(OCCn2cnc3ccccc32)cc1 | > 40.2
O=C1c2ccccc2C(=O)N1CC(O)COc1ccc(Cl)cc1 (stereo unspecified) | 6.1 (≈ 18.4 µM)
CSc1ncccc1C(=O)Nc1cccc(S(=O)(=O)N2CCOCC2)c1 | > 59
COc1ccc(NC(=O)O/N=C/c2ccc(N(C)C)cc2)cc1 | 2.8 (≈ 8.94 µM)
CN(C)CCCNC(=O)N1c2ccccc2C=Cc2ccccc21.Cl | > 53.7
Cn1c(=O)c2c(ncn2CC(=O)OCCCC(=O)c2ccc(Br)cc2)n(C)c1=O | 28 (≈ 60.4 µM)
CC(C)(C)NC(=O)NC(=O)CN1CCN(c2ccccc2O)CC1 | 44.8 (≈ 134 µM)
CC1CC(OC(=O)c2ccccc2)(c2ccccc2)C(C)CN1C (stereo unspecified) | > 48.5
O=C(Nc1ccccn1)c1ccc(C(=O)c2ccccc2)cc1 | 21.6 (≈ 71.4 µM)

Structure (SMILES) | solubility kinetic [µg/mL]
Cc1cccc(C(=O)OCC(=O)Nc2ccc(F)cc2)c1 | 6.3 (≈ 21.9 µM)
CN1CC(=O)Nc2ccc([N+](=O)[O-])cc2C1=O | > 35.3
O=C(Nc1ccccc1N1CCCC1)c1ccc([N+](=O)[O-])o1 | 44.9 (≈ 149 µM)
CCCN1C(=O)c2ccccc2NC1c1ccc(Cl)c(Cl)c1 (stereo unspecified) | 11.9 (≈ 35.5 µM)
Cc1nc2ccccc2n1Cc1ccccc1 | 32.9 (≈ 148 µM)
O=C(Oc1c(-c2ccccc2)c(=O)n2c3c(cccc13)CC2)c1ccco1 | 32.6 (≈ 91.2 µM)
Cc1ccc(S(=O)(=O)c2ncccc2[N+](=O)[O-])cc1 | 40.9 (≈ 147 µM)
O=[N+]([O-])c1ccccc1S(=O)(=O)Nc1ccc(S(=O)(=O)N2CCCC2)cc1 | > 61.7
O=c1[nH]c(=O)n(C2CCCO2)cc1F (stereo unspecified) | 29.9 (≈ 149 µM)
CCOC(=O)C1CCCN(C(=S)Nc2ccc(OC)cc2)C1 (stereo unspecified) | 46 (≈ 143 µM)
CN(Cc1ccccc1)C(=O)Cc1ccccc1 | 35.5 (≈ 148 µM)
N#CCc1ccc(Oc2ncccn2)cc1 | > 31.7
CC1CCCCC1NC(=O)COC(=O)c1cc(=O)c2ccccc2o1 (stereo unspecified) | > 51.5
CC(C)(C)C1CCc2c(sc3nc(SCC(=O)O)nc(N)c23)C1 (stereo unspecified) | 39.4 (≈ 112 µM)
NS(=O)(=O)c1ccc(NC(=S)N2CCCC2)cc1 | > 42.8
CC(CNC(=O)COC(=O)c1cccs1)c1ccccc1 (stereo unspecified) | > 45.5
O=C(COc1ccc([N+](=O)[O-])cc1)N1CCc2ccccc2C1 | 37.5 (≈ 120 µM)
CCCCOc1ncnc2c1[nH]c1ccc(C)cc12 | 0.6 (≈ 2.35 µM)
CC(CN)(NS(=O)(=O)c1ccccc1)c1ccccc1 (stereo unspecified) | > 43.6
